# Data reported in PubChem BioAssay AID2060903 (Molecular Pharmacology Branch, DTP, NCI, 2025).
# System: 377384-186-R-J1-PDC complex spheroid viability
# Assay: Anticancer human tumor 377384-186-R-J1-PDC patient-derived pancreatic carcinoma cell line growth inhibition [RAS]
# Conditions: for IC50: curve of first compound; for viability, T/C: stronger effect = lower value
# In short: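 Tumour cells grown as complex spheroids with HUVEC endothelial cells and mesenchymal stem cells, treated with RAS pathway inhibitor combinations. Each agent spans half-log steps from near clinical Cmax, or 10 microM where Cmax is unknown.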
# [1] = second compound 0.000949 µM, first compound 0.00316 µM
# [2] = second compound 0.000949 µM, first compound 0.01 µM
# [3] = second compound 0.000949 µM, first compound 0.0316 µM
# [4] = second compound 0.000949 µM, first compound 0.1 µM
# [5] = second compound 0.000949 µM, first compound 0.316 µM
# [6] = second compound 0.000949 µM, first compound 1 µM
# [7] = second compound 0.003 µM, first compound 0.00316 µM
# [8] = second compound 0.003 µM, first compound 0.01 µM
# [9] = second compound 0.003 µM, first compound 0.0316 µM
# [10] = second compound 0.003 µM, first compound 0.1 µM
# [11] = second compound 0.003 µM, first compound 0.316 µM
# [12] = second compound 0.003 µM, first compound 1 µM
# [13] = second compound 0.00949 µM, first compound 0.00316 µM
# [14] = second compound 0.00949 µM, first compound 0.01 µM
# [15] = second compound 0.00949 µM, first compound 0.0316 µM
# [16] = second compound 0.00949 µM, first compound 0.1 µM
# [17] = second compound 0.00949 µM, first compound 0.316 µM
# [18] = second compound 0.00949 µM, first compound 1 µM
# [19] = second compound 0.03 µM, first compound 0.00316 µM
# [20] = second compound 0.03 µM, first compound 0.01 µM
# [21] = second compound 0.03 µM, first compound 0.0316 µM
# [22] = second compound 0.03 µM, first compound 0.1 µM
# [23] = second compound 0.03 µM, first compound 0.316 µM
# [24] = second compound 0.03 µM, first compound 1 µM
# [25] = second compound 0.0949 µM, first compound 0.00316 µM
# [26] = second compound 0.0949 µM, first compound 0.01 µM
# [27] = second compound 0.0949 µM, first compound 0.0316 µM
# [28] = second compound 0.0949 µM, first compound 0.1 µM
# [29] = second compound 0.0949 µM, first compound 0.316 µM
# [30] = second compound 0.0949 µM, first compound 1 µM
# [31] = second compound 0.3 µM, first compound 0.00316 µM
# [32] = second compound 0.3 µM, first compound 0.01 µM
# [33] = second compound 0.3 µM, first compound 0.0316 µM
# [34] = second compound 0.3 µM, first compound 0.1 µM
# [35] = second compound 0.3 µM, first compound 0.316 µM
# [36] = second compound 0.3 µM, first compound 1 µM
# 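Also: spheroids exposed to compounds for seven days before readout.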
structure (smiles),measurement,setting,value
C=CC(=O)N1CCN(c2nc(OCC3CCCN3C)nc3c(F)c(-c4nc(N)cc(C)c4C(F)(F)F)c(Cl)cc23)C(C)C1 (stereo not drawn) + CCn1c(-c2cc(N3CCN(C)CC3)cnc2C(C)OC)c2c3cc(ccc31)-c1csc(n1)CC(NC(=O)C1CC1C)C(=O)N1CCCC(N1)C(=O)OCC(C)(C)C2,IC50,second compound 0.000949 µM,> 1000 nM
same,IC50,second compound 0.003 µM,< 3.16 nM
same,IC50,second compound 0.00949 µM,< 3.16 nM
same,IC50,second compound 0.03 µM,< 3.16 nM
same,IC50,second compound 0.0949 µM,< 3.16 nM
same,IC50,second compound 0.3 µM,< 3.16 nM
same,"viability, T/C",[1],57.6%
same,"viability, T/C",[2],48.5%
same,"viability, T/C",[3],58%
same,"viability, T/C",[4],62.1%
same,"viability, T/C",[5],61.6%
same,"viability, T/C",[6],48%
same,"viability, T/C",[7],19.5%
same,"viability, T/C",[8],19.7%
same,"viability, T/C",[9],21.2%
same,"viability, T/C",[10],19.3%
same,"viability, T/C",[11],27.7%
same,"viability, T/C",[12],22.1%
same,"viability, T/C",[13],5.16%
same,"viability, T/C",[14],6.78%
same,"viability, T/C",[15],4.26%
same,"viability, T/C",[16],6.19%
same,"viability, T/C",[17],8.67%
same,"viability, T/C",[18],5.16%
same,"viability, T/C",[19],2.65%
same,"viability, T/C",[20],2.3%
same,"viability, T/C",[21],2.75%
same,"viability, T/C",[22],3.22%
same,"viability, T/C",[23],2.42%
same,"viability, T/C",[24],1.95%
same,"viability, T/C",[25],2.35%
same,"viability, T/C",[26],2.29%
same,"viability, T/C",[27],2.53%
same,"viability, T/C",[28],2.6%
same,"viability, T/C",[29],2.41%
same,"viability, T/C",[30],1.71%
same,"viability, T/C",[31],2.58%
same,"viability, T/C",[32],2.04%
same,"viability, T/C",[33],1.61%
same,"viability, T/C",[34],1.52%
same,"viability, T/C",[35],1.71%
same,"viability, T/C",[36],1.54%
CC1(C)CCC(Nc2ncc(C(F)(F)F)c(-c3c[nH]c4c(P(C)(C)=O)c(C#N)ccc34)n2)CN1 (stereo not drawn) + CCn1c(-c2cc(N3CCN(C)CC3)cnc2C(C)OC)c2c3cc(ccc31)-c1csc(n1)CC(NC(=O)C1CC1C)C(=O)N1CCCC(N1)C(=O)OCC(C)(C)C2,IC50,second compound 0.000949 µM,< 0.949 nM
same,IC50,second compound 0.003 µM,< 0.949 nM
same,IC50,second compound 0.00949 µM,< 0.949 nM
same,IC50,second compound 0.03 µM,< 0.949 nM
same,IC50,second compound 0.0949 µM,< 0.949 nM
same,IC50,second compound 0.3 µM,< 0.949 nM
same,"viability, T/C","second compound 0.000949 µM, first compound 0.000949 µM",42.6%
same,"viability, T/C","second compound 0.000949 µM, first compound 0.003 µM",37.1%
same,"viability, T/C","second compound 0.000949 µM, first compound 0.00949 µM",22.9%
same,"viability, T/C","second compound 0.000949 µM, first compound 0.03 µM",16.4%
same,"viability, T/C","second compound 0.000949 µM, first compound 0.0949 µM",14.9%
same,"viability, T/C","second compound 0.000949 µM, first compound 0.3 µM",14%
same,"viability, T/C","second compound 0.003 µM, first compound 0.000949 µM",21.9%
same,"viability, T/C","second compound 0.003 µM, first compound 0.003 µM",16.8%
same,"viability, T/C","second compound 0.003 µM, first compound 0.00949 µM",10.4%
same,"viability, T/C","second compound 0.003 µM, first compound 0.03 µM",9.92%
same,"viability, T/C","second compound 0.003 µM, first compound 0.0949 µM",11.7%
same,"viability, T/C","second compound 0.003 µM, first compound 0.3 µM",8.33%
same,"viability, T/C","second compound 0.00949 µM, first compound 0.000949 µM",6.47%
same,"viability, T/C","second compound 0.00949 µM, first compound 0.003 µM",5.75%
same,"viability, T/C","second compound 0.00949 µM, first compound 0.00949 µM",5.48%
same,"viability, T/C","second compound 0.00949 µM, first compound 0.03 µM",5.23%
same,"viability, T/C","second compound 0.00949 µM, first compound 0.0949 µM",5.63%
same,"viability, T/C","second compound 0.00949 µM, first compound 0.3 µM",5.21%
same,"viability, T/C","second compound 0.03 µM, first compound 0.000949 µM",2.48%
same,"viability, T/C","second compound 0.03 µM, first compound 0.003 µM",2.69%
same,"viability, T/C","second compound 0.03 µM, first compound 0.00949 µM",2.99%
same,"viability, T/C","second compound 0.03 µM, first compound 0.03 µM",3.34%
same,"viability, T/C","second compound 0.03 µM, first compound 0.0949 µM",2.03%
same,"viability, T/C","second compound 0.03 µM, first compound 0.3 µM",1.64%
same,"viability, T/C","second compound 0.0949 µM, first compound 0.000949 µM",2.02%
same,"viability, T/C","second compound 0.0949 µM, first compound 0.003 µM",2.11%
same,"viability, T/C","second compound 0.0949 µM, first compound 0.00949 µM",1.57%
same,"viability, T/C","second compound 0.0949 µM, first compound 0.03 µM",1.95%
same,"viability, T/C","second compound 0.0949 µM, first compound 0.0949 µM",1.46%
same,"viability, T/C","second compound 0.0949 µM, first compound 0.3 µM",1.6%
same,"viability, T/C","second compound 0.3 µM, first compound 0.000949 µM",1.8%
same,"viability, T/C","second compound 0.3 µM, first compound 0.003 µM",1.64%
same,"viability, T/C","second compound 0.3 µM, first compound 0.00949 µM",1.69%
same,"viability, T/C","second compound 0.3 µM, first compound 0.03 µM",2.15%
same,"viability, T/C","second compound 0.3 µM, first compound 0.0949 µM",1.77%
same,"viability, T/C","second compound 0.3 µM, first compound 0.3 µM",1.54%
C=CC(=O)Nc1cc(Nc2nccc(-c3cn(C)c4ccccc34)n2)c(OC)cc1N(C)CCN(C)C + CCn1c(-c2cccnc2C(C)OC)c2c3cc(ccc31)N1CCOC(CC(NC(=O)C(C(C)C)N(C)C(=O)C3(F)CCN(C(=O)C#CC(C)(C)N(C)C)CC3)C(=O)N3CCCC(N3)C(=O)OCC(C)(C)C2)C1,IC50,second compound 0.000949 µM,727 nM
same,IC50,second compound 0.003 µM,694 nM
same,IC50,second compound 0.00949 µM,682 nM
same,IC50,second compound 0.03 µM,699 nM
same,IC50,second compound 0.0949 µM,598 nM
same,IC50,second compound 0.3 µM,639 nM
same,"viability, T/C",[1],107%
same,"viability, T/C",[2],83.9%
same,"viability, T/C",[3],94.3%
same,"viability, T/C",[4],84.5%
same,"viability, T/C",[5],77.6%
same,"viability, T/C",[6],40%
same,"viability, T/C",[7],93.3%
same,"viability, T/C",[8],96.2%
same,"viability, T/C",[9],101%
same,"viability, T/C",[10],80%
same,"viability, T/C",[11],62.9%
same,"viability, T/C",[12],44.2%
same,"viability, T/C",[13],101%
same,"viability, T/C",[14],100%
same,"viability, T/C",[15],90.5%
same,"viability, T/C",[16],84.6%
same,"viability, T/C",[17],64.1%
same,"viability, T/C",[18],42.6%
same,"viability, T/C",[19],104%
same,"viability, T/C",[20],99.1%
same,"viability, T/C",[21],97.6%
same,"viability, T/C",[22],75.6%
same,"viability, T/C",[23],69.9%
same,"viability, T/C",[24],41.9%
same,"viability, T/C",[25],91.3%
same,"viability, T/C",[26],90.2%
same,"viability, T/C",[27],85%
same,"viability, T/C",[28],76.7%
same,"viability, T/C",[29],66%
same,"viability, T/C",[30],37.7%
same,"viability, T/C",[31],77.7%
same,"viability, T/C",[32],81%
same,"viability, T/C",[33],80.7%
same,"viability, T/C",[34],82.4%
same,"viability, T/C",[35],64.3%
same,"viability, T/C",[36],40.9%
O=C(c1ccc(F)c(F)c1Nc1ccc(I)cc1F)N1CC(O)([C@@H]2CCCCN2)C1 + CCn1c(-c2cccnc2C(C)OC)c2c3cc(ccc31)N1CCOC(CC(NC(=O)C(C(C)C)N(C)C(=O)C3(F)CCN(C(=O)C#CC(C)(C)N(C)C)CC3)C(=O)N3CCCC(N3)C(=O)OCC(C)(C)C2)C1,IC50,second compound 0.000949 µM,33.2 nM
same,IC50,second compound 0.003 µM,44.8 nM
same,IC50,second compound 0.00949 µM,28.6 nM
same,IC50,second compound 0.03 µM,36 nM
same,IC50,second compound 0.0949 µM,29.9 nM
same,IC50,second compound 0.3 µM,16.8 nM
same,"viability, T/C",[1],87.5%
same,"viability, T/C",[2],85.8%
same,"viability, T/C",[3],49.2%
same,"viability, T/C",[4],17.4%
same,"viability, T/C",[5],1.96%
same,"viability, T/C",[6],1.6%
same,"viability, T/C",[7],103%
same,"viability, T/C",[8],89.2%
same,"viability, T/C",[9],63.1%
same,"viability, T/C",[10],22.7%
same,"viability, T/C",[11],2.13%
same,"viability, T/C",[12],0.43%
same,"viability, T/C",[13],98.8%
same,"viability, T/C",[14],75%
same,"viability, T/C",[15],50.3%
same,"viability, T/C",[16],19.1%
same,"viability, T/C",[17],1.75%
same,"viability, T/C",[18],0.87%
same,"viability, T/C",[19],96.2%
same,"viability, T/C",[20],77.8%
same,"viability, T/C",[21],57.3%
same,"viability, T/C",[22],18.9%
same,"viability, T/C",[23],4.23%
same,"viability, T/C",[24],0.57%
same,"viability, T/C",[25],85.5%
same,"viability, T/C",[26],77.8%
same,"viability, T/C",[27],47.5%
same,"viability, T/C",[28],17.7%
same,"viability, T/C",[29],1.32%
same,"viability, T/C",[30],0.36%
same,"viability, T/C",[31],77.1%
same,"viability, T/C",[32],60.6%
same,"viability, T/C",[33],36.9%
same,"viability, T/C",[34],10.7%
same,"viability, T/C",[35],0.96%
same,"viability, T/C",[36],0.43%
